{"source": "paper PMC3341351", "about": "“Down-Regulation of GABAA Receptor via Promiscuity with the Vasoactive Peptide Urotensin II Receptor. Potential Involvement in Astrocyte Plasticity” (PLoS ONE, 2012)", "target": "T1, α2β3γ2 GABAAR co-expressed with human UT (Homo sapiens, UniProt Q9UKP6)", "T1 construct": "expressed in transfected cells; host or cells: CHO-K1 stably expressing human UT (pIRES-neo2-UT), transiently nucleofected with GABAAR subunit cDNAs", "T1 sequence (Q9UKP6 1-389)": "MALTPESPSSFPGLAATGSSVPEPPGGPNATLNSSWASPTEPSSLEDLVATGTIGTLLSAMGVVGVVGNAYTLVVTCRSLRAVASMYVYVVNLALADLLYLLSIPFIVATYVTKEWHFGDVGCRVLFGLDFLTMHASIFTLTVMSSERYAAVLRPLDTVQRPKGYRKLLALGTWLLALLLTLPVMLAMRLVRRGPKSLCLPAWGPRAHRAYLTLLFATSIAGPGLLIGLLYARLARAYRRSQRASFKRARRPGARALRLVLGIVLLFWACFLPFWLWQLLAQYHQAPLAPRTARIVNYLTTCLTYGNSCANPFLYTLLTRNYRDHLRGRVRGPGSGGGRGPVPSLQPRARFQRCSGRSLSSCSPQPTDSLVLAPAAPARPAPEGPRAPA", "test": "Patch-clamp of Iso-evoked current in CHO-UT co-expressing α2β3γ2 GABAAR (CHO-UT-GABAAR)", "assay_type": "cell-based", "experimental": "CHO-K1 cell lines were obtained from American Type Culture Collection (Manassas, VA, USA). The human UT stable CHO (CHO-UT) was generously provided by Dr Christophe Dubessy (Inserm, Rouen University, France) et generated by CHO electroporation with 20 µg pIRES-neo2-UT DNA and 500 µg sterile sonicated salmon sperm DNA using the EasyJect One electroporation system (Equibio, Angleur, Belgium), followed by repetitive rounds of limiting dilution of cells in G-418 (400 µg/ml) for selection. Normal or stable CHO was grown in Ham-F12 medium supplemented with 10% FBS, 1% antibiotic-antimicotic solution and 2 mM glutamine, at 37°C in a humidified incubator with an atmosphere of 5% CO2. The stable CHO-UT medium was supplemented with the antibiotic G-418 (40 µg/ml).\nFor transfection, cells were trypsinized (0.05%), triturated in HamF-12 containing 10% FBS media, pelleted by centrifugation, resuspended in 100 µl solution V for nucleofection by an Amaxa Nucleofector Device (Köln, Germany; set to program U-016). Experiments were performed on normal CHO or on the stable CHO-UT cells and transiently transfected with combinations of cDNA encoding α2β3γ2, α2β3γ1, α2β1γ2, α2β3γ1, α2β3, β3γ2 (4 µg of cDNA total/transfection) GABAAR subunits. Cells were seeded on 14-mm poly-L-lysine-coated glass bottom insert dishes at 5×10^5 cells in a volume of 0.5 ml/dish. Cells were incubated overnight at 37°C in a humidified incubator (5% CO2) during 16 h before electrophysiological or immunocytochemical experiments.\nGABAA receptor cDNA clones; α2, β1, β3, γ1 and γ2L engineered into the expression vector pCDM8 ([…], β1, γ2) or pcDNA/Amp (β3, γ1), were generously provided by Dr Wingrove (Merk Sharp and Dohme, Harlow, UK). To obtain β3 ^HA or γ2 ^HA epitope-tagged subunits, β3 or γ2 cDNA was amplified and the PCR product was subcloned using the SalI and NotI sites of pCMV-HA (Table S2) after digestion by the same restriction enzymes.\nThe conventional whole-cell configuration of the patch-clamp technique was used to study the GABA-gated currents in astrocytes and granule neurons, UT stably transfected CHO, CHO-UT, and CHO transiently transfected with diverse variants of UT and GABAAR subunits. After 24-h transfection, cell culture coverslips were placed in a small chamber (1.5 ml) on a stage of a right microscope DMLFSA (Leica, Heidelberg, Germany) and superfused continuously with the following bath solution containing (in mM): NaCl, 150; KCl, 2.5; HEPES, 5; CaCl2, 2; MgCl2, 1; glucose, 10 (pH 7.4 adjusted with NaOH). The patch pipettes were fabricated from 1.5 mm (outer diameter) soft glass tubes on a two-step vertical pipette puller (List-Medical, L/M-3P-A, Darmstadt, Germany). […] ATP and GTP were added to the internal solution used to fill electrode just before recording. All recordings were obtained at RT with cells voltage-clamped at −70 mV. The GABAA receptor agonist isoguvacine was prepared in the extracellular solution and was applied to cells by pneumatic pressure ejection. To prevent desenzitization, isoguvacine was more often ejected during 5 s at 2-min intervals. ATP, GTP, or guanosine 5′-O-(2-thiodiphosphate) (GDPβS) were administered through the patch pipette solution. We investigated the effect of competitive inhibition of GDP-GTP exchange by including GDPβS in the pipette solution (in addition to the normal amount of GTP). For GDPβS and the KIC, immediately following patch rupture, GABA current recordings were performed and the experiment was commenced after an equilibration period of 15 min.\nAll peptide ligands, inhibitors or allosteric modulators of the GABAA receptor function were applied via gravity through a plastic tubing positioned in the vicinity of the cell body in order to maintain a sustained perfusion. In these conditions, drugs could reach the cell of interest after 30 s of perfusion. Isoguvacine was applied focally by pneumatic pressure ejection from a micropipette.", "data": [{"smiles": "O=C(O)C1=CCNCC1", "note": "[Iso, isoguvacine]", "values": [{"measurement": "Apparent desensitization of Iso-evoked current", "setting": "Iso 10^−4 M continuous ejection, control (Iso alone) or with hUII 10^−8 M", "value": 59, "unit": "%"}, {"measurement": "Chloride reversal potential (EqCl^−)", "setting": "I–V relationship, Iso 10^−4 M without (control) or with hUII 10^−8 M", "value": 4.84, "unit": "mV"}, {"measurement": "Mean time constant of recovery from desensitization (50% receptors)", "setting": "after long Iso exposure (30 s), control (Iso alone) or with hUII", "value": 16.2, "unit": "s"}]}]}
